Measured values: article PMC11187126, “Structure and dynamics of the pyroglutamylated RF-amide peptide QRFP receptor GPR103” (Nature Communications, 2024)
Where two headings read alike, the source gives them in different places. No end group written: not given here.

Molecular target: T1, GPR103 Q125^3.32A (Homo sapiens, UniProt Q96P65, Q125A)
T1 construct: we used human full-length QRFPR-encoding plasmids; expressed in transfected cells; host or cells: HEK293 cells, pCAGGS vector
T1 sequence (Q96P65 1-431 Q125A): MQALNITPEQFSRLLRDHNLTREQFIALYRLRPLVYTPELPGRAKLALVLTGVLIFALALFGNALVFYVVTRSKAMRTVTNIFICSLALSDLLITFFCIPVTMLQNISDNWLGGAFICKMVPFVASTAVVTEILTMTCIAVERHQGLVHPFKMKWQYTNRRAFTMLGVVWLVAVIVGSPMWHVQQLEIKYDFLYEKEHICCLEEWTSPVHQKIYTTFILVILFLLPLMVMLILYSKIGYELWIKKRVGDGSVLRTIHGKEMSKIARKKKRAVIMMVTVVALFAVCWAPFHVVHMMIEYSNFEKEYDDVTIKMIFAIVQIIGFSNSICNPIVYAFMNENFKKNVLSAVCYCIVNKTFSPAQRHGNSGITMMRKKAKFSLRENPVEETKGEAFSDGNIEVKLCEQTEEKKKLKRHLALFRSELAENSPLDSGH
Assay: TGFα shedding assay; Exp. level WT (1:50)
Type: cell-based
Method: For the TGFα shedding assay and the flow cytometry analysis, we used human full-length QRFPR-encoding plasmids. Specifically, GPR103 was N-terminally modified with an HA signal sequence followed by a FLAG epitope and then a flexible linker ([…]; the FLAG epitope is underlined) and inserted into the pCAGGS vector. Plasmid encoding GPR103 mutants were generated using Quickchange Site-Directed Mutagensis kit (Agilent).
The TGFα shedding assay was performed as described previously with minor modifications. Plasmid transfection was performed in a 6-well plate with a mixture of 500 ng (per well in a 6-well plate) AP-TGFα-encoding plasmid and 200 ng GPR103-encoding plasmid. After 1-day culture, the transfected cells were harvested by trypsinization, pelleted by centrifugation at 190 × g for 5 min, and washed once with 5 mM HEPES (pH 7.4)-containing Hank’s Balanced Salt Solution (HBSS). After centrifugation, the cells were resuspended in 8 mL of the HEPES-containing HBSS. The cell suspension was seeded in a 96-well culture plate (cell plate) at a volume of 90 μL (per well hereafter) and incubated in a 37 °C incubator with 5% CO2 for 30 min. […] After spinning the cell plates at 190 × g for 2 min, 80 μL of conditioned media was transferred to an empty 96-well plate (conditioned media (CM) plate). Then, 80 μL of AP reaction solution (10 mM p-nitrophenylphosphate (p-NPP), 120 mM Tris-HCl (pH 9.5), 40 mM NaCl, and 10 mM MgCl2) was dispensed into the cell plates and the CM plates. Absorbance at 405 nm of the plates was measured using a microplate reader (SpectraMax 340 PC384, Molecular Devices) before and after 1-h incubation at room temperature. Ligand-induced AP-TGFα release was calculated by subtracting spontaneous AP-TGFα release signal from ligand-induced AP-TGFα release signal. The AP-TGFα release signals were fitted to a four-parameter sigmoidal concentration–response curve, using the Prism 10 software (GraphPad Prism). For each replicate experiment, the pEC50 parameter (negative logarithmic values of EC50 values) of the individual GPR103 mutants were normalized to that of the wild-type GPR103 performed in parallel, and resulting ∆pEC50 values were used to denote ligand response activity of the mutants. […]
Exp. le vel: WT (1:5 0)Exp. le vel: WT (1:5 0)Exp. le vel: WT (1:5 0)Exp. le vel: WT (1:2 0)Exp. le vel: WT (1:2 0)Exp. le vel: WT (1:1 0) […]
L1 4N - t e r mA F2 5N - t e r mA I 2 6N - t e r mA Y 2 9N - t e r mA C 9 82 .5 7A T10 22 .6 1A Exp . l eve l: WT (1 :5)Exp . l evel : >WT (1 :1)Exp. le vel: WT (1:2 0)Exp. le vel: WT (1:2 0)Exp. le vel: WT (1:5 0)Exp . l eve l: WT (1 :1) […]
Exp. le vel: WT (1:1 0)Exp. le vel: WT (1:2 0) C 1 1 83 .2 5AExp. le vel: WT (1:5 0)Exp. le vel: WT (1:5 0)Exp. le vel: WT (1:2 0)Exp . l eve l: WT (1 :5) […]
Exp. le vel: WT (1:5 0)Exp. le vel: WT (1:1 0)Exp. le vel: WT (1:5 0) E203ECL2AExp . l evel : >WT (1 :1)Exp. le vel: WT (1:5 0)Exp. le vel: WT (1:5 0) […]
Exp . l eve l: WT (1 :1) F28Exp. le vel: WT (1:5 0) C 2 8 56 .4 7AExp. le vel: WT (1:2 0) WExp. le vel: WT (1:2 0) F28Exp. le vel: WT (1:5 0)Exp . l evel : >WT (1 :1) […]
Exp. le vel: WT (1:5 0)Exp. le vel: WT (1:5 0) C 3 2 77 .4 8AExp . l eve l: WT (1 :5)Exp . l evel : >WT (1 :1)Exp . l evel : >WT (1 :1) […]
Suppl eme nt ary Figure 1 | Mutational analysis of GPR103. […]
mutants. Data are presented as mean values ± SEM, normally n=3-5; dots), each performed in triplicate. b-d Cell-surface expression (b) and QRFP26-in-duced activation of GPR103 (c, d) were analyzed by the flow cytometry and the TGFα shedding assay, respectively. From the concentration–response curves (a), Emax (c) and ΔpEC50 (d) values relative to the wild type were calculated. Colors in the mutant bars indicate an expression level matching to that of titrated wild type. Statistical analyses were performed using the ordinary one-way ANOVA followed by Dunnett tests with the expression-matched […]

## TSGPLGNLAEELNGYSRKKGGFSFRF-NH2 [QRFP26]
Exp. #1
  Emax: 46.53 % WT
Exp. #2
  Emax: 25.38 % WT
Exp. #3
  Emax: 32.41 % WT
mean, read-out: Emax
  Emax: 34.8%
N = 3
  EC50: 282 nM
N = 3, read-out: Emax
  Emax: 35.7 ± 5.1%
